According to patent publication US20070292888A1, “Methods for Measuring Enzyme Activities in Cells, Blood, Tumors and Tissues” (GEN-PATH PHARMACEUTICALS, INC., priority 2004, published 2007):

Assays:
transketolase (TK) = target: T1, transketolase (TK) (Mus musculus, UniProt P40142); test: Transketolase activity in blood, tumors and tissues of treated mice (fluorescence NADH assay); format: in vivo; conditions: 11 days i.p. twice per day
T1 construct: from tissue; host or cells: mouse blood, spleen, tumor, kidney, lung, liver (crude lysates)
T1 sequence (P40142 1-623): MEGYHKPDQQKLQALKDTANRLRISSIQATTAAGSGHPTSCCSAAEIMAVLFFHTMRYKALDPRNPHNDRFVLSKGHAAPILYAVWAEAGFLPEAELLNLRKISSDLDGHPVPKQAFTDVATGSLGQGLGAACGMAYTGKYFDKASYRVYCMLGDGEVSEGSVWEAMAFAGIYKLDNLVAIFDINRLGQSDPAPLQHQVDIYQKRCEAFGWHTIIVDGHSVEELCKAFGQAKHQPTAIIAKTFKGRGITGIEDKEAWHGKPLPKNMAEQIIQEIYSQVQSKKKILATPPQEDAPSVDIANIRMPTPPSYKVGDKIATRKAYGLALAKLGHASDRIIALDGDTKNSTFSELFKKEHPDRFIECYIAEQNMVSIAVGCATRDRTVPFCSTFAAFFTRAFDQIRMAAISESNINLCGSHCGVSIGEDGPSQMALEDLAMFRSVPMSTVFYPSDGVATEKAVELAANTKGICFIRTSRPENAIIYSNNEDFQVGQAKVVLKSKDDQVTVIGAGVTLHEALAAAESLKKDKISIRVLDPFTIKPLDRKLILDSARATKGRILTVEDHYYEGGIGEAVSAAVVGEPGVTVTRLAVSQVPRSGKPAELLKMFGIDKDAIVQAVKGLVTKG
Experimental: Blood samples from mice were taken (40 μl whole blood) serially or from mice sacrificed at the end of the experiment. Tissues, such as tumors (e.g. from implantation, xenograft, or arising spontaneously), brain, heart, kidney, liver, lung and spleen were taken and flash frozen in liquid nitrogen or on dry ice and stored in −80° C. until time of assay. Four volumes of cold lysis buffer (20 mM HEPES, pH 7.5, 1 mM EDTA, 0.2 g/l Triton X-100® and 0.2 g/L sodium deoxycholate, supplemented with 1 mM DTT and 1 mM PMSF just before use) were added to the blood, which was dissolved by vortexing. For blood that was frozen before coagulation, a clear lysate was obtained. If coagulation occurred, homogenization was used as described below for tissue. Tissues were suspended in lysis buffer in 10 ml round bottom tubes and homogenized with PowerGen 125® (Fisher Scientific) for four seconds at highest power while submerged in an ice-water bath. This step was repeated after a few seconds, as necessary. The lysate was used right away or else flash frozen and stored at −80° C. until assay time. Eighty microliters (80 μl) of lysate (containing 5 mg tissue/ml lysate for TK and kGDH, 0.5 mg/ml for G6PDH) were put directly in individual wells of a 96-well clear-bottomed assay plate. Twenty microliters (20 μl) of 5× reaction mix was added to initiate each enzymatic reaction.
Each reaction was monitored for the appearance of NADH (for transketolase, alpha-ketoglutarate dehydrogenase, pyruvate dehydrogenase) or NADPH (for glucose-6-phosphate dehydrogenase) at room temperature in a fluorescent plate reader with excitation at 340 nm and emission at 470 nm in kinetic mode. The velocity was determined by the slope of the initial linear range of increasing fluorescence, expressed in fluorescent units (FU)/min. The protein concentration in the lysate was determined using Bradford assays (BioRad) with BSA as a standard. The enzymatic velocity was normalized by the total protein concentration for inter-sample comparison. To obtain reliable results across samples, similar starting protein concentrations were prepared (within approximately 30%) so that the normalized velocity required only small adjustments. This was achieved by weighing the tissue and putting in lysis buffer so that the suspensions contained the same amount of tissue/ml lysis buffer for all samples.
For TK, 15 μl of 5× assay buffer containing final concentrations of 50 mM HEPES, 40 mM KCl, 2.5 mM MgCl2, 5 mM NaArsenate, 1 mM NAD, 2 unit/ml glyceraldehydes-3-phosphate dehydrogenase (GAPDH) was added to 80 μl of lysate. Reaction kinetics were monitored on a fluorescent plate reader to allow any possible background activity via GAPDH to burn out. Then 5 μl of substrate mix containing final concentrations of 0.5 mM ribose-5-phosphate and 0.5 mM xylulose-5-phosphate was added to initiate the reaction. The reaction kinetics were monitored using a fluorescent plate reader, and the slope of the initial linear range was recorded as the velocity of the reaction (FU/min). See FIG. 1 for the reaction scheme.
To investigate the amount of in vivo enzyme inhibition following treatment with an inhibitor, we administered a single dose of N3PT (100 mg/kg, intraperitoneally [i.p.]) and blood, spleen and brain samples were collected at various times from 0-120 hours after dosing. The enzymatic activities were determined as described in Example 1. TK activity was measured in blood and spleen. Because TK activity in the brain is below the detection limit of the assay, kGDH activity was measured in brain samples. Measurements were taken at various time intervals
We measured enzyme activity in an expanded panel of tissues from mice treated with N3PT or OxyT for 11 days i.p., twice per day. Samples were taken from tumors, blood, brain, heart, kidney, lung and spleen, and TK, kGDH and G6PDH activities were determined as described above.

[1] = target: T2, glucose-6-phosphate dehydrogenase (G6PDH) (Mus musculus, UniProt Q00612); test: Glucose-6-phosphate dehydrogenase activity in tissues of treated mice (fluorescence NADPH assay); format: in vivo; conditions: 11 days i.p. twice per day, various organs
T2 construct: from tissue; host or cells: mouse tumor, blood, brain, heart, kidney, liver, lung, spleen (crude lysates)
T2 sequence (Q00612 whole entry): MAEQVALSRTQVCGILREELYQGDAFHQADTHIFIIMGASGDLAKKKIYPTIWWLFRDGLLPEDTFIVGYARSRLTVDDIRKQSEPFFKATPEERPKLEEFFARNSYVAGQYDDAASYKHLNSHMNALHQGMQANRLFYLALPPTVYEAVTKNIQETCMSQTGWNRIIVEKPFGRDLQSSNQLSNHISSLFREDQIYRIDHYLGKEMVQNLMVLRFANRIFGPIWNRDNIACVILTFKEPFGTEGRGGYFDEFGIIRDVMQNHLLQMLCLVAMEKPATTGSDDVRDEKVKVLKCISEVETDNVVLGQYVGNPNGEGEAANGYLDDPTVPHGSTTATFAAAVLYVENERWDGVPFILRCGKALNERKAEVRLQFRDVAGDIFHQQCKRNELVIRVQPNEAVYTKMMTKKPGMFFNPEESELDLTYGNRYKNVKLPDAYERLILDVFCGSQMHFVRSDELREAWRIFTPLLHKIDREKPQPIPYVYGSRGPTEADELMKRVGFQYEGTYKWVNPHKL
Experimental: Blood samples from mice were taken (40 μl whole blood) serially or from mice sacrificed at the end of the experiment. Tissues, such as tumors (e.g. from implantation, xenograft, or arising spontaneously), brain, heart, kidney, liver, lung and spleen were taken and flash frozen in liquid nitrogen or on dry ice and stored in −80° C. until time of assay. Four volumes of cold lysis buffer (20 mM HEPES, pH 7.5, 1 mM EDTA, 0.2 g/l Triton X-100® and 0.2 g/L sodium deoxycholate, supplemented with 1 mM DTT and 1 mM PMSF just before use) were added to the blood, which was dissolved by vortexing. For blood that was frozen before coagulation, a clear lysate was obtained. […]
Each reaction was monitored for the appearance of NADH (for transketolase, alpha-ketoglutarate dehydrogenase, pyruvate dehydrogenase) or NADPH (for glucose-6-phosphate dehydrogenase) at room temperature in a fluorescent plate reader with excitation at 340 nm and emission at 470 nm in kinetic mode. The velocity was determined by the slope of the initial linear range of increasing fluorescence, expressed in fluorescent units (FU)/min. The protein concentration in the lysate was determined using Bradford assays (BioRad) with BSA as a standard. […]
We measured enzyme activity in an expanded panel of tissues from mice treated with N3PT or OxyT for 11 days i.p., twice per day. […]

For `Cc1ncc(C[n+]2csc(CCO)c2C)c(=O)[nH]1` [OxyT, oxythiamine], the “percent inhibition of TK activity in tumors” value (transketolase (TK); 100 mg/kg, compared to vehicle control) was 40%, the “liver enzymatic (TK) activity” value (transketolase (TK); liver) was “hardly affected” and the “G6PDH enzymatic activity following treatment” value [1] was “no significant decrease”.
